Assay results published in the NIST ThermoML archive (doi:10.1016/j.fluid.2014.04.038).

Conditions: Liquid, Hot wire method

Cc1ccccc1 [toluene]
Conditions	thermal conductivity [W/m/K]
318.8 K	0.1241
328.48 K	0.1218
333.34 K	0.1209
338.23 K	0.1195
341.16 K	0.1201
343.09 K	0.1176
346.01 K	0.116
350.87 K	0.1149
355.71 K	0.1151
365.42 K	0.1116
370.29 K	0.1112
